According to US7109202B2, “Aminothaizoles and their use as adenosine receptor antagonists” (Novartis AG, priority 2000, dated 2006):
Like-named read-outs stand apart in the source and are kept apart here.

Legend:
[1] = biological target: T1, human adenosine A2b receptor (Homo sapiens, UniProt P29275); experiment: Adenosine A2b receptor reporter gene assay (luciferase, CHO-A2b cells); assay type: cell-based; conditions: CHO cells transfected with human A2b receptor and pCRE-LUCI; NECA as agonist; KB from shift of the curve at 100 nM or 1 μM antagonist
T1 construct: expressed in transfected cells; host or cells: CHO cells, co-transfected with the pCRE-LUCI reporter plasmid
T1 sequence (P29275 1-332): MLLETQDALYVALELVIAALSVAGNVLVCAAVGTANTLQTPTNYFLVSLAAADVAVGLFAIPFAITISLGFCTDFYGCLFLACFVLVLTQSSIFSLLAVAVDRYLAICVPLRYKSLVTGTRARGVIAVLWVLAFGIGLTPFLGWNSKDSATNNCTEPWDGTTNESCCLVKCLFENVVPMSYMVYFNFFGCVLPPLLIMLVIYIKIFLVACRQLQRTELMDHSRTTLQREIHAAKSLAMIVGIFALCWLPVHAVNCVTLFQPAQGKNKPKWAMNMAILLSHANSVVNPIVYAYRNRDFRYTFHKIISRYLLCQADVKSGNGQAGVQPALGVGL
Description: Adenosine A2b Receptor Reporter Gene Assay a) Culturing of Chinese Hamster Ovary (CHO) A2b Cell Line
CHO cells transfected with a Luciferase-expressing reporter plasmid (pCRE-LUCI) and with a plasmid carrying the human adenosine A2b receptor structural gene (pA2bRCV) are routinely cultured in Dulbecco's Modified Eagle Medium (DMEM)—supplemented with 10% v/v fetal calf serum (FCS), 2 mM L-glutamine, 0.4 mg/ml L-proline, 1 nM sodium selenite, 0.5 mg/ml Hygromycin B and 1 mg/ml Geneticin—at 37° C., 5% CO2 and 100% humidity. The cells are left to grow to confluence for 4–5 days. The cells obtained are passaged using trypsin/EDTA and split at a ratio of 1 in 5. […]
b) Preparation of Cells for Assay
Prior to the assay, the CHO-A2b cells are plated onto white 96-well View Plate tissue culture plates (Packard) at a density of 50,000 cells per well in […] of DMEM, and the plates are incubated at 37° C., 5% CO2 and 100% humidity. […]
c) Preparation of Reference and Test Compounds
10 mM solutions of the reference compound, Xanthine Amine Cogener (XAC), and the test compound in dimethyl sulfoxide (DMSO) are prepared. The solutions are further diluted with DMSO to 100 μM, then diluted to 10 μM, and finally to 250 nM or 2.5 μM with Assay Buffer (DMEM Phenol Red-free tissue culture media supplemented with 10 μM Rolipram and 10 U/ml adenosine deaminase (ADA). The resulting solutions (40 μl) are added to the cells in the appropriate wells, the final concentration per well being 100 nM or 1 μM, and the plates are incubated at 37° C., 5% CO2 and 100% humidity. […]
d) Luciferase Reporter Gene Assay
5′-N-ethylcarboxamidoadenosine (NECA), an adenosine A2b agonist, is prepared as a […] solution in DMSO and then diluted to 100 μM with Assay Buffer. This solution is serially diluted in Assay Buffer to give a series of 10 NECA concentrations from 100 to 0.01 μM. 10 μl portions of the resulting NECA solutions are added to the mixtures of CHO-A2b cells and reference or test compound solutions prepared as described above (preincubated for 30 minutes), final concentrations ranging from 10 to 0.0005 μM per well. The cells are incubated at 37° C., 5% CO2 and 100% humidity for 3 hours to induce release of cAMP, which then binds to cAMP binding protein (CBP) and the resulting complex interacts with the reporter plasmid to express Luciferase. 100 μl of Steady-Glo, a Luciferase assay substrate from Promega, is added to all wells to lyse the cells and generate luminescence in proportion to the amount of Lucifrease produced. The plates are left for a minimum of 5 minutes before being read on the luminescence program of a Topcount NXT microplate scintillation counter (ex Packard). Concentration—response curves are plotted from the luminescence data using Activitybase software and KB values for the antagonists under test are calculated from the shifts of the curve at a particular concentration (KB=[antagonist]/(concentration ratio−1)

[2] = biological target: T2, adenosine A3 receptor (Homo sapiens, UniProt P0DMS8)
T2 sequence (P0DMS8 1-318): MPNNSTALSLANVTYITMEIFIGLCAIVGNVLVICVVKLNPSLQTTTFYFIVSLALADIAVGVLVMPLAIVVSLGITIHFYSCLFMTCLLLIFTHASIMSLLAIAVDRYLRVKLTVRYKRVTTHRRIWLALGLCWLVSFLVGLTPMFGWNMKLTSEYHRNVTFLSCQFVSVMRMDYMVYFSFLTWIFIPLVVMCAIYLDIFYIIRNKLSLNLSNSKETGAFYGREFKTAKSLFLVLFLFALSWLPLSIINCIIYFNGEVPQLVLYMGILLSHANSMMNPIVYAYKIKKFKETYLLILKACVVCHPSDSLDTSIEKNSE

[3] = read-out: KI value in adenosine A3 receptor assay, assay as described in WO 99/64418

Compound: (3-[5-(2-Methyl-imidazol-1-yl)-2-(pyrazin-2-ylamino)-triazol-4-yl]-benzonitrile) [Example 35]
- Kb [1]: 4 nM
- Ki [2, 3]: 10 nM

Compound: Cc1cccc(Nc2nc(-c3cccc(C#N)c3)c(-n3cncn3)s2)n1 [Example 15, 3-[2-(6-Methyl-pyridin-2-ylamino)-5-[1,2,4]triazol-1-yl-thiazol-4-yl]-benzonitrile]
- Kb [1]: 20 nM

Compound: COc1ccc(C(=O)Nc2nc(-c3cccc(C#N)c3)c(-n3cncn3)s2)cc1 [Example 12, N-[4-(3-Cyano-phenyl)-5-[1,2,4]triazol-1-yl-thiazol-2-yl]-4-methoxy-benzamide]
- Kb [1]: 31 nM
- melting point: 292 to 294 °C

Compound: N#Cc1cccc(-c2nc(Nc3cnccn3)sc2-n2cncn2)c1 [Example 27, (3-[2-(Pyrazin-2-ylamino)-5-[1,2,4]triazol-1-yl-thiazol-4-yl]-benzonitrile)]
- Kb [1]: 10 nM
- Ki [2, 3]: 16 nM

Compound: COCCOc1cncc(Nc2nc(-c3cccc(C#N)c3)c(-n3cncn3)s2)n1 [Example 38]
- Kb [1]: 12 nM
- Ki [2]: 4 nM

Compound: Cn1cccc1C(=O)Nc1nc(-c2cccc(C#N)c2)c(-n2cncn2)s1 [Example 36, 1-Methyl-1H-pyrrole-2-carboxylic Acid [4-(3-cyano-phenyl)-5-[1,2,4]triazol-1-yl-thiazol-2-yl]-amide]
- Kb [1]: 17 nM
- melting point: 245 to 247 °C
